Several values for one entry are separate records, joined by “and”; a condition that tells them apart may be missing. Equal values may be shown once. Activity calls are given as the source filed them. The rule behind the calls is not given here.

For the assay, the target named is Neutrophil cytosol factor 1 (Homo sapiens) (UniProt P14598). As to the kind of experiment: blockers of ligand binding to p47phox – biochemical, NADPH oxidase regulatory subunit, fluorescence polarization, dose response (AID 1275). As to conditions: p47phox binding inhibition. In general terms: In fluorescence polarisation assays a small probe gives low polarisation when free and higher when bound to something large.
Chain of Neutrophil cytosol factor 1 (Homo sapiens) (P14598 whole entry, looked up): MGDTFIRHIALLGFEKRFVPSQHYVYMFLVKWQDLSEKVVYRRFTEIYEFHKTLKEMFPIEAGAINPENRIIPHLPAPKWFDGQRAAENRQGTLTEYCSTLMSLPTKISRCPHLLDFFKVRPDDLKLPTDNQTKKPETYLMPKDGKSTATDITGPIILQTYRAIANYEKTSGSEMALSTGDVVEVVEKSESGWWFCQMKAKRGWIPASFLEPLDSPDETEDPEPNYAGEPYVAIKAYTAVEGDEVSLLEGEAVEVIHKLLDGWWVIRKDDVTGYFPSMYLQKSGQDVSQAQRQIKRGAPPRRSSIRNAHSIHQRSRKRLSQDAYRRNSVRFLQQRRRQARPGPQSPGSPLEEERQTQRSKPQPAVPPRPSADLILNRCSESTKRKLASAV
For `CC(=O)N1C(=O)C2(C(C#N)=C(N)Oc3n[nH]c(-c4ccccn4)c32)c2ccccc21` (stereo not given), the IC50 is > 50 µM (inactive).

In the case of `Cc1cccc(N=Nc2c(C)c(C#N)c(O)[nH]c2=O)c1`, the IC50 was > 50 µM (inactive).

`Cc1ccc(C(NC(=O)N2CCOCC2)=C(Cl)Cl)cc1F`: the IC50 was > 50 µM (inactive).

On to `CC(C)Cc1ccc(/C(=N/O)C(=O)O)s1`, for which the IC50 is > 50 µM (inactive).

Turning to `COc1ccc(N=C2O/C(=C/c3sc(=S)n(CC4CCCO4)c3O)N=C2C#N)cc1` (stereo not given), the IC50 was 16 µM.

As to `N#CC(=C=[N-])c1nc2ccccc2nc1-[n+]1cccc(NC(=O)c2ccccc2)c1`, the IC50 is > 50 µM (inactive) and 24.2 µM.

On to `CCOc1ccc(C2CC(c3c(O)n(C)c(=O)n(C)c3=O)=NN2)cc1` (stereo not given), for which the IC50 was > 50 µM (inactive).

`CCN(CC)c1ccc(/C=N/c2sc3c(c2C#N)C2CCN3CC2)c(O)c1`: the IC50 is 6.96 µM.

Take `COc1ccc(-c2cnnc(N/N=C/c3ccc(-c4ccc([N+](=O)[O-])cc4)o3)n2)cc1`: the IC50 is > 50 µM (inactive).

`CCOC(=O)C1=C(O)CSC1=Nc1ccc(Cl)cc1`: the IC50 was > 50 µM (inactive).

`COc1ccc(C2C(C#N)=C(N)Oc3cc4c(cc32)OCO4)cc1` (stereo not given): the IC50 was > 50 µM (inactive).

Take `COCc1cc(C)nc(N/N=C/c2ccc(-c3ccc(Cl)cc3[N+](=O)[O-])o2)c1C#N`: the IC50 is > 50 µM (inactive).

As to `C/C(=N\Nc1ccc(S(N)(=O)=O)cc1[N+](=O)[O-])c1ccc2c(c1)OCO2`, the IC50 is > 50 µM (inactive).

Regarding `CN(C)CC(C)(C)CN=Cc1c(O)[nH]c2ccccc12`, the IC50 is > 50 µM (inactive).

On to `CCN=C(Nc1ccc2c(c1)OCO2)SC1CC(=O)N(c2ccccc2F)C1=O` (stereo not given), for which the IC50 was > 50 µM (inactive).

As to `Cc1nc2ccccc2n2c(O)c(CC(=O)O)cc12`, the IC50 entry was “inactive”.

Consider `CCOC(=O)c1ccc(N2C(=O)CC(Nc3ccc(O)cc3)C2=O)cc1` (stereo not given), for which the IC50 is 23.7 µM.

`O=C(N=Nc1c(O)[nH]c2ccc(Cl)cc12)c1cc(-c2cccs2)nc2ccccc12`: the IC50 is > 50 µM (inactive).

For the compound `COc1cc(/C=N/NC(=O)c2ccc(CN3c4cccc5cccc(c45)S3(=O)=O)cc2)cc(OC)c1O`, the IC50 was > 50 µM (inactive).

`CC(C)N1CC2=C(OC(N)=C(C#N)C2c2cccnc2)/C(=C/c2cccnc2)C1` (stereo not given): the IC50 entry is “inactive”.

For `COC(=O)c1cc(C(=O)OC)cc(N2C(=O)CC(NNC(=O)c3ccc(C)cc3)C2=O)c1` (stereo not given), the IC50 was > 50 µM (inactive).

Regarding `Cc1ccc(NC(=O)Cn2c(O)c(N=NC(=O)c3cc4ccccc4cc3O)c3ccccc32)cc1`, the IC50 was > 50 µM (inactive).

With `Cc1ccccc1NC(=O)Cn1c(O)c(N=NC(=O)c2ccccc2O)c2ccccc21`, the IC50 is > 50 µM (inactive).

In the case of `O=C(N=Nc1c(O)[nH]c2ccc(Br)cc12)c1cc(-c2cccs2)nc2ccccc12`, the IC50 is > 50 µM (inactive).

As to `Cc1ccc(/C(CSc2nccn2-c2ncc(C(F)(F)F)cc2Cl)=N\O)cc1`, the IC50 was > 50 µM (inactive).

Consider `O=C1OCC=C1NNC(=O)c1cccnc1`, for which the IC50 was > 50 µM (inactive).

Turning to `Clc1ccc(/C=N/Nc2nc(Cl)nc3ccccc23)cc1`, the IC50 was > 50 µM (inactive).

Turning to `COc1ccc(N2C(=O)CNC2=S)cc1`, the IC50 is > 50 µM (inactive).

As for `CCOC(=O)C1=C(O)c2ccccc2C(=O)/C1=C\c1ccc(CC)cc1`, the IC50 was > 50 µM (inactive).

`O=C1CCCC(O)=C1N=Nc1ccc(C(=O)O)cc1`: the IC50 is > 50 µM (inactive).

With `N=C1CCC(=N)c2c1c(O)c1ccccc1c2O`, the IC50 was 0.68 µM.

`Cn1c(O)c(/C=C2\N=c3ccccc3=C2CCNC(=S)NC2CC2)c(=O)n(C)c1=O`: the IC50 is 14.1 µM.

For the compound `O=C(N=Nc1c(O)n(C2OC(=O)c3ccccc32)c2ccccc12)c1ccco1` (stereo not given), the IC50 is > 50 µM (inactive).

Consider `COc1nc(N/N=C/c2ccc(-c3cccc([N+](=O)[O-])c3)o2)nc(N2CCOCC2)n1`, for which the IC50 was > 50 µM (inactive).

For the compound `O=C(N=Nc1c(O)n(Cc2ccccc2)c2ccccc12)c1cc2ccccc2cc1O`, the IC50 is > 50 µM (inactive).

On to `Cc1cc2c(C)nc(N/N=C/c3ccc([N+](=O)[O-])cc3)nc2o1`, for which the IC50 was > 50 µM (inactive).

Take `CC1=NN(c2ccccc2)C(=O)/C1=C/C=C/c1ccc(N(C)C)cc1`: the IC50 was > 50 µM (inactive).

Regarding `CCOc1ccc(-n2c(SCC(=O)Nc3ccc(Br)cc3)nc3n[nH]c(C)c3c2=N)cc1`, the IC50 was > 50 µM (inactive).

For the compound `Nc1cc(Cl)ccc1N1C(=O)CCC1=O`, the IC50 was > 50 µM (inactive).

On to `CSc1sc(C)cc1C1C(C#N)=C(N)N(c2cccnc2)C2=C1C(=O)CCC2` (stereo not given), for which the IC50 was > 50 µM (inactive).

For `C/C(N)=C(/C#N)C(=O)CSc1nnc(-c2ccc3c(c2)OCO3)o1`, the IC50 is > 50 µM (inactive).

On to `C[c-]1[c-](C)[c-](C)[c-](C)[c-]1C.[Fe].c1cc2nccc(N3CCCC3)[c-]2c1` (stereo not given), for which the IC50 is > 50 µM (inactive).

For the compound `C(=N\Nc1nc(Nc2ccccc2)nc(N2CCCCC2)n1)/c1ccco1`, the IC50 was > 50 µM (inactive).

Take `Cc1ccc(C(=O)C2=C(O)C(=O)N(Cc3ccccc3)C2c2cccnc2)o1` (stereo not given): the IC50 was > 50 µM (inactive).

Consider `CCOc1ccc2c(c1)C(c1cccs1)=NNC(c1cccnc1)=N2`, for which the IC50 was > 50 µM (inactive).

Regarding `O=[N+]([O-])c1ccc(N=Cc2c(O)ccc3ccccc23)cc1`, the IC50 was 4.58 µM.

Turning to `O=c1oc2ccccc2c(O)c1/C=C1\C=Nc2ccccc21`, the IC50 was > 50 µM (inactive).

Regarding `CN(C)c1ccnc2c[cH-]cc12.[Fe].c1ccc(-[c-]2[c-](-c3ccccc3)[c-](-c3ccccc3)[c-](-c3ccccc3)[c-]2-c2ccccc2)cc1` (stereo not given), the IC50 is 13.9 µM and 2.73 µM.

For `O=[N+]([O-])c1ccc(N/N=C\c2cccn2-c2ccccc2)nc1`, the IC50 is > 50 µM (inactive).

For `Cc1ccc(/C=N/Nc2ccnc3cc(Cl)ccc23)c(C)c1`, the IC50 is > 50 µM (inactive).

With `CCOC(=O)C1=C(c2ccccc2)NC(N)=NC1c1ccc(OCc2ccc(Cl)cc2)c(OC)c1` (stereo not given), the IC50 is 4.14 µM.

On to `CCOc1ccc(N/C=C/C(=O)c2ccccc2)c([N+](=O)[O-])c1`, for which the IC50 is > 50 µM (inactive).

With `CCOc1ccc(N/C=C/C(=O)c2ccc(C)cc2)c([N+](=O)[O-])c1`, the IC50 was > 50 µM (inactive).

Consider `O=c1cnnc(N/N=C/c2c[nH]c3ccccc23)[nH]1`, for which the IC50 was > 50 µM (inactive).

As for `O=C1Nc2ccccc2/C1=N/N=C/c1ccc(-c2ccc([N+](=O)[O-])cc2)o1`, the IC50 is > 50 µM (inactive).

On to `CCOC(=O)/C(C)=C1\NC(C)(C)Cc2ccccc21`, for which the IC50 was > 50 µM (inactive).

For the compound `N#CC1=C(N)OC2=C(CN(Cc3ccccc3)C/C2=C\c2cccnc2)C1c1cccnc1` (stereo not given), the IC50 is 3.5 µM.

Regarding `O=c1[nH]c(O)c(/C=C2/C=CC(c3cc(Cl)ccc3Cl)=N2)c(=O)[nH]1`, the IC50 was > 50 µM (inactive).

`O=C(Cn1c(O)c(/C=C2\C=Nc3ccc(Br)cc32)sc1=O)N1CCCC1`: the IC50 is > 50 µM (inactive).

With `CCOC(=O)C(=CNc1ccc(Oc2cccnc2)nc1)C(=O)OCC`, the IC50 is > 50 µM (inactive).

In the case of `C=CCNC(=S)N1CCN(CCN=CC2=C(O)CC(c3ccco3)CC2=O)CC1` (stereo not given), the IC50 is > 50 µM (inactive).

For the compound `N#CC(=C=[N-])c1nc2ccccc2nc1-[n+]1cccc(NC(=O)c2cccs2)c1`, the IC50 is 14.8 µM.

`CC1=C(C#N)c2nc(N)c(C#N)c(C)c2/C1=C\c1ccc(-c2ccccc2C(=O)O)o1`: the IC50 is 26.9 µM.

With `O=c1[nH]c(=S)[nH]c(O)c1N=Nc1ccc(-c2ccccc2)cc1[N+](=O)[O-]`, the IC50 is 8.05 µM.

As for `Cc1ccc(-n2c(O)c(/C=N/Nc3ccccc3)c(=O)[nH]c2=O)cc1C`, the IC50 is > 50 µM (inactive).

Take `CCOC(=O)C1=C(COc2ccc(C)cc2)NC(=O)NC1c1cc(C)ccc1C` (stereo not given): the IC50 is > 50 µM (inactive).

With `COc1ccc(-c2cn[nH]c2-c2ccc(OCc3ccc([N+](=O)[O-])cc3)cc2O)cc1`, the IC50 was > 50 µM (inactive).

`CC1(C)CC(=O)C2=C(C1)Nc1cc3c(cc1C2c1ccc2c(c1)OCO2)OCO3` (stereo not given): the IC50 was > 50 µM (inactive).

With `COc1ccc(C2C(C(=O)c3ccccc3)=C(C)Nc3nc4ccccc4n32)cc1OC` (stereo not given), the IC50 is > 50 µM (inactive).

With `N#Cc1ccc(N/N=C/c2cn(-c3ccccc3)nc2-c2ccccc2)c([N+](=O)[O-])c1`, the IC50 was > 50 µM (inactive).

`CCc1cc2c(=O)nc3n(c2s1)Cc1ccccc1/C3=C(/O)c1ccccc1Cl`: the IC50 is > 50 µM (inactive).

On to `Oc1[nH]c(=S)sc1/C=C1\C(c2ccccc2)=Nc2ccccc21`, for which the IC50 result is “inactive”.

Take `CCOC(=O)C1=C(c2ccccc2)NC(N)=NC1c1ccc(OCc2ccc(C(=O)OC)cc2)cc1` (stereo not given): the half-maximal inhibitory concentration (IC50) is 6.96 µM.

As for `Cc1cccc(NC(=O)Cn2c(O)c(N=NC(=O)c3ccccc3O)c3ccccc32)c1`, the IC50 is > 50 µM (inactive).

As to `CC1CCCCN1C(=O)C12CCC(C)(/C(=N/O)C1)C2(C)C` (stereo not given), the IC50 was > 50 µM (inactive).

What is called IC50 is the point on the concentration scale where inhibition reaches its midpoint.

Source of the values: PubChem BioAssay AID1275 (Emory University Molecular Libraries Screening Center, 2008).
